Laboratory results reported in patent US20150202212A1, “METHODS FOR IDENTIFYING AGENTS FOR TREATING SMOOTH MUSCLE DISORDERS AND COMPOSITIONS THEREOF” (University of Massachusetts Medical School, priority 2012, published 2015).
Where two headings read alike, the source gives them in different places.

Experiments:
Mouse ASM cells = assay: Measurement of Ca2+ sparks / local Ca2+ events in mouse ASM cells
[1] = system: isolated smooth muscle cells from mouse internal anal sphincter; assay: [Ca2+]i in isolated smooth muscle cells from mouse internal anal sphincter; assay type: cell-based; settings: CDCA 100 μM; chloroquine 1 mM; denatonium 1 mM
Excerpt: Fluorescence images using fluo-3 as a calcium indicator were obtained using a custom-built wide-field digital imaging system. The camera was interfaced to a custom made inverted microscope, and the cells were imaged using either a 20× Nikon 1.3 NA for global [Ca^2+] measurement or a 60× Nikon 1.4 NA oil for Ca^2+ spark measurement. The 488 nm line of an Argon Ion laser provided fluorescence excitation, with a shutter to control exposure duration, and emission of the Ca^2+ indicator was monitored at wavelengths >500 nm. The images were acquired at the speed of either 1 Hz for global [Ca^2+] measurement or 50 Hz for Ca^2+ spark measurement. Subsequent image processing and analysis was performed off line using a custom-designed software package, running on a Linux/PC workstation. [Ca^2+]i was represented as ΔF/F0*100 with F calculated by integrating fluo-3 over entire cells for global [Ca^2+], or just the value at the brightest pixel (i.e., epicenter pixel) for Ca^2+ sparks.

mouse urethra = assay: Mouse urethral contraction induced by contractile agonists; settings: pretreatment; Chloro 1 mM; CDCA 100 μM
Excerpt: […] were pretreated with bitter tastants, and then stimulated with contractile agonists. Contractile agonists alone were used as the control.

mouse airway strips = settings: all at 1 mM; [Ca2+]i clamped; α-toxin permeabilized
L-type VDCCs = settings: chloroquine 1 mM; for inhibition of L-type Ca2+ channel currents: Ba2+ as charge carrier
[2] = system: human airway smooth muscle; assay: Measurement of cell shortening in human ASM cells; assay type: cell-based; settings: chloroquine after Mch
Method: Human lung tissue was obtained (with informed consent) from patients undergoing surgery (lobectomy) for lung cancer at the Department of Surgery and the Department of Pathology at the Univ. of Massachusetts Memorial Med Ctr (Worcester, Mass.). The tumors were identified as nonsmall cell carcinoma (adenocarcinoma, squamous cell carcinoma). Intrapulmonary airways were dissected out and cleaned free of the connective tissues. These airways were either cut into the rings ([…]) for force measurements the same as for mouse airway tissues, or digested with the same enzymes, dissociation medium and isolation procedure as for single mouse ASM cells.
Myocytes were placed into a recording chamber superfused with the bath solution for patch clamp experiments at room temperature. Cells loaded with Fluo-3 were imaged using a custom-built wide-field digital imaging system and their lengths were determined using custom software to manually trace down the center of the cell.

CCN(CC)CCCC(C)Nc1ccnc2cc(Cl)ccc12 (centres unmarked) [chloroquine]
Ca2+ spark frequency (Mouse ASM cells; chloroquine 10 μM for 2 mins, 13 cells without global rise, control 2.13±0.24): 1.62±0.21 Hz
Ca2+ spark amplitude (ΔF/F0 at the brightest location) (Mouse ASM cells; chloroquine 10 μM for 2 mins, n=13, control 20.6±1.69): 18.1±1.3
local Ca2+ events (Ca2+ puffs or sparks) (Mouse ASM cells; chloroquine 10 μM, cells pretreated with 100 μM ryanodine, 14 cells): no detectable local Ca^2+ events
effect on the increase in [Ca2+]i induced by 60 mM KCl [1]: fully reversed
effect on 60 mM KCl-induced contraction (mouse urethra): blocked
effect on alpha1-agonist phenylephrine-induced contraction (mouse urethra): inhibited
relaxation of ASM at fixed [Ca2+]i (mouse airway strips): failed to relax
time to full inhibition of L-type Ca2+ channel currents (L-type VDCCs): ≤ 2 min
inhibition of L-type Ca2+ channel currents (L-type VDCCs): fully inhibited
inhibition of L-type Ca2+ channel currents (L-type VDCCs; listed as Chloro): blocked
cell length, % of the control length [2]: 94±5%
